Reference: EPA's ToxValDB 9.5 (doi:10.2903/j.efsa.2017.4989)
Converted amounts (≈) assume the structure as drawn.

Assays:
Apis mellifera = details: acute, duration: 48 hours, mortality
Daphnia magna = details: chronic/long-term; duration: 21 days; reproduction
Anas platyrhynchos = details: acute; oral; unspecified; mortality
Oryctolagus sp. = details: developmental; development
Hypoaspis aculeifer = details: chronic/long-term; mortality
Folsomia candida = details: chronic/long-term; mortality
Tagia sp. = details: chronic/long-term; growth
Oncorhynchus mykiss = details: for LC50: acute, duration: 96 hours, mortality

| SMILES | LD50 (Apis mellifera; dermal) [µg/piece] | LD50 (Apis mellifera; oral, unspecified) [µg/piece] | NOEC (Daphnia magna) [mg/L] | LD50 (Anas platyrhynchos) [mg/kg-day] | LD50 (Colinus virginianus; acute, oral, mortality) [mg/kg-day] | NOEL (Colinus virginianus; chronic) [mg/kg-day] | NOAEL (Oryctolagus sp.) [mg/kg-day] | NOEC (Hypoaspis aculeifer) [mg/kg] | LC50 (Rattus norvegicus; acute, oral, mortality) [mg/kg-day] | NOAEL (Rattus norvegicus; chronic, body weight) [mg/kg-day] | NOAEL (Rattus norvegicus; reproduction developmental, body weight) [mg/kg-day] | NOEC (Folsomia candida) [mg/kg] | NOEC (Tagia sp.) [mg/kg] | LC50 (Oncorhynchus mykiss) [µg/mL] | NOEC (Oncorhynchus mykiss; chronic/long-term, duration: 95 days, other) [mg/L] | LD50 (Rattus norvegicus; acute, oral, mortality) [mg/kg-day] | NOAEL (Rattus norvegicus; short-term, duration: 28 days, clinical chemistry) [mg/kg-day] | NOAEL (Rattus norvegicus; short-term, duration: 28 days) [mg/kg-day] |
| --- | --- | --- | --- | --- | --- | --- | --- | --- | --- | --- | --- | --- | --- | --- | --- | --- | --- | --- |
| CO/N=C(/C(=O)OC)c1ccccc1CO/N=C(\C)c1cccc(C(F)(F)F)c1 [Trifloxystrobin] | > 100 | > 110 | 0.00276 | > 2250 | > 2000 | 31 | 50 | 249 | > 5000 | 10 | 10 | 249 | 3.5 | 0.015 (≈ 0.0367 µM) | 0.0043 |  |  |  |
| CO/N=C(/C(=O)O)c1ccccc1CO/N=C(\C(=O)O)c1cccc(C(F)(F)F)c1 |  |  |  |  |  |  |  | 100 |  |  |  | 10 | 100 | > 100 |  | > 2000 | 150 |  |
| CO/N=C(/C(=O)O)c1ccccc1CO/N=C(/C(=O)O)c1cccc(C(F)(F)F)c1 |  |  |  |  |  |  |  |  |  |  |  | 100 | 100 | > 100 |  | > 2000 |  | > 1000 |
